Results from patent publication EP2663342B1, “STABLE HYDROGEL COMPOSITIONS INCLUDING PHENYLEPHRINE” (ALLERGAN, INC., priority 2011, dated 2012).

Tests used:
Format in all cases: physicochemical
[1] = Extrusion force of HA-based gel after autoclaving; conditions: ΔF vs HA gel without the added ingredients
Description: Stability of a hydrogel composition disclosed herein can be determined by subjecting a hydrogel composition to a heat treatment, such as, e.g., steam sterilization at normal pressure or under pressure (e.g., autoclaving). […] Substantial stability of a hydrogel composition disclosed herein can be evaluated 1) by determining the change in the extrusion force (ΔF) of a hydrogel composition disclosed herein after sterilization, where the change in extrusion force less 2N is indicative of a substantially stable hydrogel composition as measured by (the extrusion force of a hydrogel composition with the specified additives) minus (the extrusion force of the a hydrogel composition without the added additives); and/or 2) by determining the change in rheological properties of a hydrogel composition disclosed herein after sterilization, where the change in tan δ 1 Hz of less than 0.1 is indicative of a substantially stable hydrogel composition as measured by (tan δ 1 Hz of gel formulation with additives) minus (tan δ 1 Hz of gel formulation without additives). As such, a substantially stable hydrogel composition disclosed herein retains one or more of the following characteristics after sterilization: homogeneousness, extrusion force, cohesiveness, hyaluronan concentration, agent(s) concentration, osmolarity, pH, or other rheological characteristics desired by the hydrogel before the heat treatment.
(§1) The hydrogel properties, aspect (i.e., color/clarity/homogeneity), and extrusion force were analyzed after autoclaving and at 3 years equivalent at room temperature.

[2] = Extrusion force of HA-based gel at 3 years equivalent at room temperature
Experimental: as §1

[3] = Aspect (color/clarity/homogeneity) of HA-based gel after autoclaving; conditions: for Aspect: after autoclaving and at 3 years equivalent at room temperature
Experimental: The active ingredient was incorporated into a HA-based gel matrix and autoclaved by steam sterilization at a temperature between about 130 °C to about 135 °C for between about one minute and about 10 minutes. The hydrogel properties, aspect (i.e., color/clarity/homogeneity), and extrusion force were analyzed after autoclaving and at 3 years equivalent at room temperature. All formulations were clear, homogenous, uncolored, and had acceptable extrusion force properties after autoclaving and at the 3-year equivalent mark (Table 3).
Ascorbic acid, at a concentration of 1% (w/w) was, incorporated in a HA-based gel matrix, and the pH of the gel adjusted to about 7 and then autoclaved by steam sterilization at a temperature between about 130 °C to about 135 °C for between about one minute and about 10 minutes.

[4] = as above
[5] = Oxidation testing: degradation by free radicals (H2O2) on a rheometer; conditions: gel with AA2G and lidocaine versus gel with lidocaine
Description: The effect of ascorbic acid 2-glucoside (AA2G™) on HA-based gel matrix oxidative degradation was studied. Oxidation testing was used as it allows testing of the resistance of a HA-based gel matrix to free radicals. Degradation by free radicals was simulated on a rheometer (Haake Rheostress 600) by addition of 1/7 ratio of H2O2 30% on the surface of a spread gel measured with a controlled stress rheometer according to the following method: frequency of 1 Hz with 0.8% controlled strain, during 3600 s at 35 °C. The time value is taken at 5 Pa/s.

[6] = ingredient at 0.3 % in HA-based gel matrix
[7] = ingredient at 0.5 % in HA-based gel matrix
[8] = ingredient at 1 % in HA-based gel matrix

## NC(=O)NC1NC(=O)NC1=O (stereo not drawn) [Allantoin]
[1]; [6]
  Extrusion force (N) after autoclaving: PASSED (the change of extrusion force (ΔF) was less than two Newtons (< 2 N))
[1]; [7]
  Extrusion force (N) after autoclaving: PASSED (the change of extrusion force (ΔF) was less than two Newtons (< 2 N))
[2]; [6]
  Extrusion force (N) 3 years ∼ room T °C: PASSED (the change of extrusion force (ΔF) was less than two Newtons (< 2 N))
[2]; [7]
  Extrusion force (N) 3 years ∼ room T °C: PASSED (the change of extrusion force (ΔF) was less than two Newtons (< 2 N))

## Cc1cc(=O)n(-c2ccccc2)n1C [Antipyrin, reference compound]
[3]; [7]
  Aspect: Clear Homogeneous Uncolored
[3]; [8]
  Aspect: Clear Homogeneous Uncolored
[1]; [7]
  Extrusion force (N) after autoclaving: PASSED (the change of extrusion force (ΔF) was less than two Newtons (< 2 N))
[1]; [8]
  Extrusion force (N) after autoclaving: PASSED (the change of extrusion force (ΔF) was less than two Newtons (< 2 N))
[2]; [7]
  Extrusion force (N) 3 years ∼ room T °C: PASSED (the change of extrusion force (ΔF) was less than two Newtons (< 2 N))
[2]; [8]
  Extrusion force (N) 3 years ∼ room T °C: PASSED (the change of extrusion force (ΔF) was less than two Newtons (< 2 N))

## O=C1O[C@H]([C@@H](O)CO)C(O)=C1O[C@H]1O[C@H](CO)[C@@H](O)[C@H](O)[C@H]1O [Ascorbic acid 2-Glucoside]
[4]; 0.6% (w/w), 1% (w/w), or 2% (w/w) AA2G in HA-based gel matrix, pH about 7, same before autoclaving
  aspect of gel after autoclaving: clear and uncolored
[5]
  protected against oxidative degradation by a factor: 3

## O=C1O[C@H]([C@@H](O)CO)C(O)=C1O [Ascorbic acid, (5R)-[(1S)-1,2-dihydroxyethyl]-3,4-dihydroxyfuran-2(5H)-one]
[3]; 1% (w/w) in HA-based gel matrix, pH about 7, clear and uncolored before autoclaving
  aspect of gel after autoclaving: clear but yellowed

## Nc1ccn([C@@H]2O[C@H](CO)[C@@H](O)[C@H]2O)c(=O)n1 [Cytidine]
[1]; [7]
  Extrusion force (N) after autoclaving: PASSED (the change of extrusion force (ΔF) was less than two Newtons (< 2 N))
[1]; [8]
  Extrusion force (N) after autoclaving: PASSED (the change of extrusion force (ΔF) was less than two Newtons (< 2 N))
[2]; [7]
  Extrusion force (N) 3 years ∼ room T °C: PASSED (the change of extrusion force (ΔF) was less than two Newtons (< 2 N))
[2]; [8]
  Extrusion force (N) 3 years ∼ room T °C: PASSED (the change of extrusion force (ΔF) was less than two Newtons (< 2 N))

## CC(C)(CO)[C@@H](O)C(=O)NCCCO [Dexpanthenol]
[4]; 1% (w/w) in HA-based gel matrix comprising 0.3% (w/w) lidocaine, same before autoclaving
  aspect of gel after autoclaving: clear and uncolored

## CNC[C@H](O)c1ccc(O)c(O)c1 [Epinephrine bitartrate]
[4]; 10 ppm in HA-based gel matrix comprising 0.3% (w/w) lidocaine, clear and uncolored before autoclaving
  aspect of gel after autoclaving: clear but colored
[4]; 10 ppm in HA-based gel matrix, same before autoclaving
  aspect of gel after autoclaving: clear and uncolored
[4]; 20 ppm in HA-based gel matrix comprising 0.3% (w/w) lidocaine and 4.5% (w/w) mannitol, clear and uncolored before autoclaving
  aspect of gel after autoclaving: slightly colored

## CNC[C@H](O)c1ccc(O)c(O)c1 [Epinephrine, (R)-4-(1-hydroxy-2-(methylamino)ethyl)benzene-1,2-diol]
[4]; 10 ppm in HA-based gel matrix with 0.9% (w/w) mannitol
  aspect of gel after autoclaving: slightly colored
[4]; 10 ppm in HA-based gel matrix with 4.5% (w/w) mannitol, same before autoclaving
  aspect of gel after autoclaving: clear and uncolored

## CC12CCC(CC1)C(C)(C)O2 [Eucalyptol]
[1]; [7]
  Extrusion force (N) after autoclaving: PASSED (the change of extrusion force (ΔF) was less than two Newtons (< 2 N))
[2]; [7]
  Extrusion force (N) 3 years ∼ room T °C: PASSED (the change of extrusion force (ΔF) was less than two Newtons (< 2 N))

## OCC(O)CO [Glycerin]
[1]; [7]
  Extrusion force (N) after autoclaving: PASSED (the change of extrusion force (ΔF) was less than two Newtons (< 2 N))
[2]; [7]
  Extrusion force (N) 3 years ∼ room T °C: PASSED (the change of extrusion force (ΔF) was less than two Newtons (< 2 N))

## O=C1O[C@H]([C@@H](O)CO)C([O-])=C1OP(=O)([O-])[O-].O=C1O[C@H]([C@@H](O)CO)C([O-])=C1OP(=O)([O-])[O-].[Mg+2].[Mg+2].[Mg+2] [Magnesium Ascorbyl Phosphate]
[4]; 0.6% (w/w), 1% (w/w) or 2% (w/w) MAP in HA-based gel matrix, pH about 7, same before autoclaving
  aspect of gel after autoclaving: clear and uncolored

## c1ccc2c(CC3=NCCN3)cccc2c1 [Naphazoline, 2-(1-naphthylmethyl)-2-imidazoline]
[4]; 100 ppm naphazoline in HA-based gel matrix comprising 0.3% (w/w) lidocaine, same before autoclaving
  aspect of gel after autoclaving: clear and uncolored

## CNC[C@H](O)c1cccc(O)c1 [Phenylephrine, (R)-3-[-1-hydroxy-2-(methylamino)ethyl]phenol]
[4]; 100 ppm or 400ppm phenylephrine in HA-based gel matrixes comprising 0.3% (w/w) lidocaine, same before autoclaving
  aspect of gels after autoclaving: clear and uncolored

## O=C1O[C@H]([C@@H](O)CO)C([O-])=C1OP(=O)([O-])[O-].[Na+].[Na+].[Na+] [Sodium Ascorbyl Phosphate]
[4]; 0.6% (w/w), 1% (w/w), or 2% (w/w) SAP in HA-based gel matrix, pH about 7, same before autoclaving
  aspect of gel after autoclaving: clear and uncolored

## Cc1c(C)c2c(c(C)c1OP(=O)([O-])[O-])CCC(C)(CCCC(C)CCCC(C)CCCC(C)C)O2.[Na+].[Na+] (stereo not drawn) [Sodium Tocopheryl Phosphate]
[4]; 0.4% (w/w) or 1.2% (w/w) in HA-based gel matrix
  aspect of gel after autoclaving: unclear and white

## CNCC(O)c1ccc(O)cc1 (stereo not drawn) [Synephrine, 4-[1-hydroxy-2-(methylamino)ethyl]phenol]
[4]; 100 ppm synephrine in HA-based gel matrix comprising 0.3% (w/w) lidocaine, same before autoclaving
  aspect of gel after autoclaving: clear and uncolored

## Cc1cn([C@H]2C[C@H](O)[C@@H](CO)O2)c(=O)[nH]c1=O [Thymidine]
[1]; [7]
  Extrusion force (N) after autoclaving: PASSED (the change of extrusion force (ΔF) was less than two Newtons (< 2 N))
[1]; [8]
  Extrusion force (N) after autoclaving: PASSED (the change of extrusion force (ΔF) was less than two Newtons (< 2 N))
[2]; [7]
  Extrusion force (N) 3 years ∼ room T °C: PASSED (the change of extrusion force (ΔF) was less than two Newtons (< 2 N))
[2]; [8]
  Extrusion force (N) 3 years ∼ room T °C: PASSED (the change of extrusion force (ΔF) was less than two Newtons (< 2 N))

## CC(=O)Oc1c(C)c(C)c2c(c1C)CCC(C)(CCC[C@H](C)CCC[C@H](C)CCCC(C)C)O2 (stereo partly drawn) [Tocopheryl Acetate]
[4]; 0.5% (w/w) or 1.2% (w/w) in HA-based gel matrix
  aspect of gel after autoclaving: unclear and white

## NC[C@H]1CC[C@H](C(=O)O)CC1 [Tranexamic acid, reference compound]
[4]; 0.4% (w/w) tranexamic acid in HA-based gel matrix comprising 0.3% (w/w) lidocaine, same before autoclaving
  aspect of gel after autoclaving: clear and uncolored
[1]; [7]
  Extrusion force (N) after autoclaving: PASSED (the change of extrusion force (ΔF) was less than two Newtons (< 2 N))
[2]; [7]
  Extrusion force (N) 3 years ∼ room T °C: PASSED (the change of extrusion force (ΔF) was less than two Newtons (< 2 N))

## O=c1ccn([C@@H]2O[C@H](CO)[C@@H](O)[C@H]2O)c(=O)[nH]1 [Uridine]
[3]; [7]
  Aspect: Clear Homogeneous Uncolored
[3]; [8]
  Aspect: Clear Homogeneous Uncolored
[1]; [7]
  Extrusion force (N) after autoclaving: PASSED (the change of extrusion force (ΔF) was less than two Newtons (< 2 N))
[1]; [8]
  Extrusion force (N) after autoclaving: PASSED (the change of extrusion force (ΔF) was less than two Newtons (< 2 N))
[2]; [7]
  Extrusion force (N) 3 years ∼ room T °C: PASSED (the change of extrusion force (ΔF) was less than two Newtons (< 2 N))
[2]; [8]
  Extrusion force (N) 3 years ∼ room T °C: PASSED (the change of extrusion force (ΔF) was less than two Newtons (< 2 N))

## Polyoxyethanyl-α-tocopheryl sebacate
[4]; 0.7% (w/w) in HA-based gel matrix
  aspect of gel after autoclaving: clear, but heterogeneous
